In patent US7943657B2, “Imidoalkanpercarboxylic acids” (Solvay Solexis S.p.A., priority 2002, dated 2011):

Assays:
[1] = Phase separation and sedimentation of 5% aqueous PAP dispersion at rest in graduated cylinder; assay type: physicochemical; conditions: 5% by weight PAP dispersion, rest at room temperature
Protocol: In a beaker immersed in a thermostatic bath an aqueous dispersion of alpha crystalline PAP in demineralized water at 5% by weight of PAP is prepared, by adding to 473.5 ml of demineralized water at the temperature of 50° C., kept under stirring with an anchor and a magnetic stirrer, 500 ppm of antifoam DB 100 and 1,000 ppm of surfactant Hostapur® SAS and 26.50 g of crystalline PAP in alpha form, of technical degree (titre: 94.3%) having average sizes higher than 100 micron. After 10 minutes of stirring at 50° C., the beaker is removed from the thermostatic bath and the aqueous suspension is transferred in a graduated cylinder. It is let rest at room temperature in the graduated cylinder.
An aqueous dispersion of crystalline PAP in demineralized water at 5% by weight of PAP is prepared, as described in Example 2A, by adding to 471.9 ml of demineralized water 500 ppm of antifoam DB 100 and 1000 ppm of surfactant Hostapur® SAS and 28.1 g of crystalline PAP in beta form of technical degree (titre: 89%), having average sizes higher than 100 micron, in particular 80% of the particles being comprised between 100 and 200 micron. After 10 minutes of stirring at 50° C., the beaker is removed and the suspension is transferred into a graduated cylinder, as in Example 2A. […] The separation of the supernatant aqueous phase increases after 2 hours to more than 70% of the total volume.

[2] = Dissolution time of crystalline PAP dispersed in standard detergent solution (HPLC); assay type: physicochemical; conditions: listed as crystals of PAP in beta form
Protocol: Successive samples of liquid phase, carefully filtered on filter of 0.45 micron, are drawn and the PAP concentration in solution is determined by HPLC.
Said times are determined by drawing some curves reporting in ordinate the PAP concentration dissolved in the aqueous phase (determined by HPLC) and in abscissae the sample drawing time, taking as 100% the PAP concentration asymptotically obtained at infinite time.
The previous test is repeated by dispersing 70 mg of anhydrous crystalline PAP (base 100%), respectively of crystals and microcrystals (sizes lower than 10 micron) of PAP in beta form, obtained as from Examples 2B and 2A respectively, in one liter of aqueous solution, prepared as above, stirred and thermostated at the temperature of 25° C.
Successive samples of liquid phase, carefully filtered on filter of 0.45 micron, are drawn, and the PAP concentration in solution is determined by HPLC.

separation of supernatant aqueous phase ([1]; after 10 minutes): 60 % of the total volume
separation of supernatant aqueous phase ([1]; after 2 hours): more than 70 % of the total volume
necessary time for the dissolution of 90% of the crystalline PAP initially dispersed ([2]; 70 mg PAP in 1 liter water 10° F. hardness + 1.70 g detergent IEC type B, 25° C.): 60 min
necessary time for the dissolution of 90% of the crystalline PAP initially dispersed ([2]; 100 mg PAP in 1 liter water 10° F. hardness + 1.70 g detergent IEC type B, 40° C.): 30 min
SMILES: O=C(CCCCCN1C(=O)c2ccccc2C1=O)OO [Example 2B, ε-phthalimido-peroxyhexanoic acid]
solid phase thickening / sedimentation on the cylinder bottom ([1]; 2A after two hours and 48 hours, 2B after 10 minutes): sedimentation of a precipitate on the bottom
